Here are results for three molecules from patent US11897856B1, “N-(Naphthalen-1-ylcarbamothioyl)furan-2-carboxamide as an eco-friendly insecticidal agent against Spodoptera littoralis (boisd.)” (KING FAISAL UNIVERSITY, priority 2023, dated 2024).

In brackets after ≈: the same amount, converted by molar mass. Like-named read-outs stand apart in the source and are kept apart here.

This data set relates to Spodoptera littoralis. The data set is described as follows: Insecticidal bioassay screening (castor leaf dip, larval mortality). Type of data set: in vivo. The following applies: for LC50: Spodoptera littoralis, in Gossypium hirsutum, foliar; for Toxicity index %: 72 hrs, Diflubenzuron's LC50/compound's LC50 x 100; for LC90 (mg/L) at 95%: after 72 hrs of treatment. How it is done: Five concentrations (200, 100, 50, 25, 12.5 ppm) were designed for this synthetic compound and the reference Diflubenzuron compound as the dynamic ingredients based on ppm via diluting the commercial formulation.
In this experiment, castor leaves are immersed in each of the previously prepared concentrations of the components for 10 seconds and then left to dry for 60 minutes. Larvae of the second and fourth instars of each checked strain are prepared with treated leaves in gauze-covered glass containers for 72 hrs. An untreated control is made in which leaves are dipped in triton x-100 and distilled water only. Then the preserved leaves were removed & fresh, untreated leaves were provided for 72 hours. Three replicates (10 larvae each) were checked for each concentration. Daily inspection was carried out for all treatments and mortality percentages were recorded 3 days (72 hours) after treatment. The average mortality percentage was corrected employing Abbott's formula. The corrected mortality rate for each of the previously synthesized compounds is statistically calculated according to Finney (1970). Through this rate, the corresponding concentration test lines (LDP lines) are assessed.

Setting [1] is: 72 h, read-out: LC50 (mg/L) at 95%, 2nd instar larvae, after 72 hrs of treatment.
[2] abbreviates: 72 h, read-out: LC50 (mg/L) at 95%, 4th instar larvae, after 72 hrs of treatment.
Where [3] appears, read: against Spodoptera littoralis under laboratory conditions, instar not stated.

`O=C(NC(=S)Nc1cccc2ccccc12)c1ccco1` [N-(Naphthalen-1-ylcarbamothioyl)furan-2-carboxamide]: the LC50 was approximately 400 mg/L (≈ 1350 µM) under setting [1] and approximately 1210 mg/L (≈ 4090 µM) under setting [2].
Turning to `O=C(NC(=S)Nc1cccc2ccccc12)c1ccco1` [Compound 2, N-(Naphthalen-1-ylcarbamothioyl)furan-2-carboxamide], where the note is “2nd instar larvae”, the Toxicity index % worked out at 11.3% and the “LC90 (mg/L) at 95%” value is reported as 3612.2 mg/L (≈ 12200 µM). Besides, under “4th instar larvae”, the Toxicity index % was 12.9% and the “LC90 (mg/L) at 95%” value was found to be 1727.9 mg/L (≈ 5830 µM). The LC50 under setting [3] was 400 mg/L (≈ 1350 µM). Also, the “Insecticidal activity (in words)” value (against Spodoptera littoralis, compared with Diflubenzuron) is “active against Spodoptera littoralis”. Also, where the note is “in vivo”, the “LC50 (mg/L) at 95%” value is listed as 1211.2 mg/L (≈ 4090 µM).
In the case of `O=C(NC(=O)c1c(F)cccc1F)Nc1ccc(Cl)cc1` [Diflubenzuron, reference compound], the Toxicity index % reads like this: (2nd instar larvae) 100%; (4th instar larvae) 100%. Further, the “LC90 (mg/L) at 95%” value is, setting by setting: (2nd instar larvae) 520.0 mg/L (≈ 1670 µM); (4th instar larvae) 1540.5 mg/L (≈ 4960 µM). In addition, the LC50 was 45.2 mg/L (≈ 145 µM) under setting [1], 144 mg/L (≈ 464 µM) under setting [2] and 45.2 mg/L (≈ 145 µM) under setting [3].
